Source: US6767561B2, “DNA polymerase inhibitors, mikanolide and dihydromikanolide” (Societe de Conseils de Recherches et d'Applications …, priority 1999, dated 2004)
pIC50: −log10 of the molar value.

Assays:
[1] = tested on: Klenow DNA polymerase enzyme without exonuclease; assay: Incorporation of cytosine labelled with 32P into a DNA in the presence of DNA polymerase in an acellular system; assay type: biochemical; conditions: 100 μg/ml, [32P]dCTP incorporation vs control
Procedure: Incorporation of Cytosine Labelled With ^32P into a DNA in the Presence of DNA Polymerase in an Acellular System
Labelling of the DNA is carried out on a DNA fragment which incorporates nucleotides by way of the activity of the DNA polymerase enzyme. From these nucleotides, the dCTP is labelled by radioactive phosphorus (^32P).
Plasmidic DNA (pc DNA 3, invitrogen, Netherlands) is diluted to a concentration of 2 ng in 45 μl of TE solution (10 MM Tris-HCl; pH 8.0; 1 mM EDTA) then denatured by heating at 100° C. for 10 minutes before being replaced directly in ice. The denatured DNA is placed in the tube which contains the buffer solution of dATP, dGTP, dTTP, the Klenow DNA polymerase enzyme without exonuclease and the random primers (Rediprime II random prime labelling system, RPN 1633, RPN 1634, Amersham pharmacia biotech). 2 μl of Redivue [^32P]dCTP ([…] 5′(α-^32P), specific activity 250 μCi, Amersham), is added to start the reaction. The reaction is carried out in the presence or absence of the compound to be tested for 10 minutes at 37° C. or 1 hour at ambient temperature. […] 10 μl is counted into 5 ml of scintillor (Instagel® plus and Packard scintillation counter). The results are expressed as a percentage of the inhibition of incorporation of the labelled nucleotide in the sample with respect to the control (100−(DPM of the sample/DPM control)*100).

HT29 cells = assay: Incorporation of tritiated thymidine into the DNA of HT29 cells in exponential growth phase (in vitro); assay type: cell-based, human; conditions: 1 hour treatment
Procedure: (§1) The cell lines DU145 (human prostate cancer cells), HT29 (cancer of the colon) and Mia-PaCa2 (human pancreatic cancer cells) were acquired from the American Tissue Culture Collection (Rockville, Md., USA).
Incorporation of Thymidine Labelled With Tritium into DNA Cells in Exponential Growth Phase (in vitro)
HT29 cells are seeded in 96-well plates (culturPlate-96, Packard; 4000 cells per well) with the medium (DMEM, Gibco BRL complemented with 10% foetal calf serum, Gibco BRL). On day 3, the medium is removed and replaced by medium containing the tritiated thymidine (5′-thymidine TRK.328, 1 mCi, 0.6 μCi/wells, Amersham) with or without the products (range of 100 to 0.19 μg/ml per ½ dilutions). The treatments are carried out for 1 hour. The medium is then removed and the cells are washed twice with 200 μl of PBS (Gibco BRL). The lysis solution (SDS 1.25%; EDTA 5 mM) is added and left for 10 minutes at ambient temperature, then 75 μl of scintillating liquid (microscint® 40, Packard) is added. Reading is carried out using Topcount® (Packard). The results are expressed as a percentage of the inhibition of incorporation of the labelled nucleotide in the sample with respect to the control (100−(DPM of the sample/DPM control)*100).

[2] = tested on: Mia-Paca2 human tumor cells; assay: Cell proliferation test (WST1), Mia-PaCa2; assay type: cell-based; conditions: Mia-Paca2, 96 hours treatment, read-out: Inhibitory concentration IC50
Procedure: as §1
(§2) The cells placed in 80 μl of Dulbecco's modified Eagle medium (Gibco-Brl, Cergy-Pontoise, France) completed with 10% foetal calf serum inactivated by heating (Gibco-Brl, Cergy-Pontoise, France), 50000 units/l of penicillin and 50 mg/l streptomycin (Gibco-Brl, Cergy-Pontoise, France), and 2 mM of glutamine (Gibco-Brl, Cergy-Pontoise, France) were seeded on a 96-well plate on day 0. The cells were treated on day 1 for 96 hours with increasing concentrations of each of the compounds to be tested at 50 μg/ml. At the end of this period, quantification of cell proliferation is evaluated by a colorimetric test based on the cleavage of the tetrazolium salt WST1 by mitochondrial dehydrogenases in viable cells leading to the formation of formazan (Boehringer Mannheim, Meylan, France). These tests are carried out in duplicate with 8 determinations per concentration tested. For each compound to be tested, the values included in the linear part of the sigmoid were retained for linear regression analysis and used to estimate the inhibitory concentration IC50. The products are solubilized in dimethylsulphoxide (DMSO) at 10^−2 M and finally used in culture with 0.5% DMSO.

DU145 human tumor cells = assay: Cell proliferation test (WST1), DU145; assay type: cell-based; conditions: DU-145, 96 hours treatment, read-out: Inhibitory concentration IC50
Procedure: as §1, §2

Row | SMILES | Inhibition of incorporation (%) [1] | Remaining thymidine incorporation (dpm sample/dpm control) (HT29 cells; 25 μg/ml) | Remaining thymidine incorporation (dpm sample/dpm control) (HT29 cells; 50 μg/ml) | Remaining thymidine incorporation (dpm sample/dpm control) (HT29 cells; 100 μg/ml) | pIC50 [2] | pIC50 (DU145 human tumor cells)
1 | C=C1C(=O)O[C@H]2C[C@]3(C)O[C@H]3[C@@H]3O[C@@H]3C3=C[C@@H](OC3=O)[C@H]12 [Mikanolide, mikanolide] | 79.6 (n = 3; standard deviation σ = 11.0) % | 1.04 | 0.61 | 0.53 | 5.52 | 4.82
2 | C[C@H]1C(=O)O[C@H]2C[C@]3(C)O[C@H]3[C@@H]3O[C@@H]3C3=C[C@@H](OC3=O)[C@@H]21 [Dihydromikanolide, dihydromikanolide] | 73 (n = 5; standard deviation σ = 7) % | 0.58 | 0.29 | 0.19 | – | –
